According to patent publication US20230365592A1 (Agios Pharmaceuticals, Inc., priority 2022, published 2023):

molecular target: T1, human PAH with the R408W mutation (Homo sapiens, UniProt P00439, R408W); test: Cell Based Phenylalanine Flux Assay; conditions: A375 cells expressing R408W PAH; 24 hrs with compound, then 20 µM sepiapterin and 800 µM 13C9,15N-Phenylalanine for 4 hours; 13C-Tyrosine by LC-MS; average where tested multiple times; read-out: AC50;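 further: after compound treatment, cells received sepiapterin plus isotope-labelled Phenylalanine for 4 hours, then labelled Tyrosine in the medium was quantified, 10-point 2-fold dilution series run in duplicate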
T1 construct: expressed in transfected cells
T1 sequence (P00439 1-452 R408W): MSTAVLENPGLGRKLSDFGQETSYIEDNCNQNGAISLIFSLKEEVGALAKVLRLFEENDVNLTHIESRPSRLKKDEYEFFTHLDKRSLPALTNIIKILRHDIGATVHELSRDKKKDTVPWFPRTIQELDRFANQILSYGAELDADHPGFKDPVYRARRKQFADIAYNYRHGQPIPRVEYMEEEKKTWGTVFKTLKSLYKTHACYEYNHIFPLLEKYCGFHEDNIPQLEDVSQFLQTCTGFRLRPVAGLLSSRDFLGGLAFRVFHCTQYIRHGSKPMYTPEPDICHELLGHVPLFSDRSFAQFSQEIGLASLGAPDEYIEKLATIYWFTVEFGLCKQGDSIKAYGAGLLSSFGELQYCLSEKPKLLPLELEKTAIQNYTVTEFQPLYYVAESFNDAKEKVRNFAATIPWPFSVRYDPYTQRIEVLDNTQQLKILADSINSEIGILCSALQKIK

AC50 [µM] | Structure (SMILES)
1 to 5 | Fc1cccn2nc(C3c4nc[nH]c4CCN3c3nnc(-c4ncccn4)o3)cc12 (stereo not shown)
1 to 5 | Fc1cccn2nc(C3c4nc[nH]c4CCN3c3nnc(C4CCC4)o3)cc12 (stereo not shown)
1 to 5 | Cc1nnc(N2CCc3[nH]cnc3C2c2cc3c(OC(F)F)cccn3n2)o1 (stereo not shown)

same assay, conditions: A375 cells expressing human PAH R408W; 24 hrs compound incubation; 13C-Tyrosine by LC-MS; average where tested multiple times; read-out: AC50

AC50 [µM] | Structure (SMILES)
< 0.5 | Cc1cccnc1-c1nnc(N2CCc3[nH]cnc3[C@H]2c2cc3c(C)cccn3n2)o1 [Example 2269, (S)-2-(4-(4-methylpyrazolo[1,5-a]pyridin-2-yl)-1,4,6,7-tetrahydro-5H-imidazo[4,5-c]pyridin-5-yl)-5-(3-methylpyridin-2-yl)-1,3,4-oxadiazole]
0.5 to 1 | CC(C)(F)c1nnc(C(=O)N2CCc3[nH]cnc3[C@H]2c2cc3c(C4CC4)cccn3n2)o1 [Example 2061, (S)-(4-(4-cyclopropylpyrazolo[1,5-a]pyridin-2-yl)-1,4,6,7-tetrahydro-5H-imidazo[4,5-c]pyridin-5-yl)(5-(2-fluoropropan-2-yl)-1,3,4-oxadiazol-2-yl)methanone]
1 to 5 | O=C(c1ocnc1C1CC1)N1CCc2[nH]cnc2[C@@H]1c1cc2c(Cl)cccn2n1 [Example 2041, (R)-(4-(4-chloropyrazolo[1,5-a]pyridin-2-yl)-1,4,6,7-tetrahydro-5H-imidazo[4,5-c]pyridin-5-yl)(4-cyclopropyloxazol-5-yl)methanone]
> 5 | Cn1ccc(-c2nnc(C(=O)N3CCc4[nH]cnc4[C@@H]3c3cc4ccccn4n3)s2)n1 [Example 2017, (R)-(5-(1-methyl-1H-pyrazol-3-yl)-1,3,4-thiadiazol-2-yl)(4-(pyrazolo[1,5-a]pyridin-2-yl)-1,4,6,7-tetrahydro-5H-imidazo[4,5-c]pyridin-5-yl)methanone]
1 to 5 | FC(F)c1nnc(N2CCc3[nH]cnc3[C@H]2c2cc3cccc(C(F)F)n3n2)o1 [Example 2221, (S)-2-(difluoromethyl)-5-(4-(7-(difluoromethyl)pyrazolo[1,5-a]pyridin-2-yl)-1,4,6,7-tetrahydro-5H-imidazo[4,5-c]pyridin-5-yl)-1,3,4-oxadiazole]
< 0.5 | Fc1ccc(-c2nnc(N3CCc4[nH]cnc4[C@H]3c3cc4ccccn4n3)o2)cc1 [Example 1861, (S)-2-(4-fluorophenyl)-5-(4-(pyrazolo[1,5-a]pyridin-2-yl)-1,4,6,7-tetrahydro-5H-imidazo[4,5-c]pyridin-5-yl)-1,3,4-oxadiazole]
< 0.5 | Fc1cccc(N2CCc3[nH]cnc3[C@H]2c2cc3c(F)cccn3n2)n1 [Example 1955, (S)-4-(4-fluoropyrazolo[1,5-a]pyridin-2-yl)-5-(6-fluoropyridin-2-yl)-4,5,6,7-tetrahydro-1H-imidazo[4,5-c]pyridine]
1 to 5 | FC(F)c1cccn2nc([C@@H]3c4nc[nH]c4CCN3c3nnc(C4CCC4)o3)cc12 [Example 2485, (S)-2-cyclobutyl-5-(4-(4-(difluoromethyl)pyrazolo[1,5-a]pyridin-2-yl)-6,7-dihydro-1H-imidazo[4,5-c]pyridin-5(4H)-yl)-1,3,4-oxadiazole]
0.5 to 1 | FC(F)(F)Oc1cccn2nc([C@@H]3c4nc[nH]c4CCN3c3ccc(C(F)(F)F)cn3)cc12 [Example 2348, (S)-4-(4-(trifluoromethoxy)pyrazolo[1,5-a]pyridin-2-yl)-5-(5-(trifluoromethyl)pyridin-2-yl)-4,5,6,7-tetrahydro-1H-imidazo[4,5-c]pyridine]
> 5 | Cc1ncccc1-c1nnc(N2CCc3[nH]cnc3[C@@H]2c2cc3c(C(C)C)cccn3n2)o1 [Example 2235, (R)-2-(4-(4-isopropylpyrazolo[1,5-a]pyridin-2-yl)-1,4,6,7-tetrahydro-5H-imidazo[4,5-c]pyridin-5-yl)-5-(2-methylpyridin-3-yl)-1,3,4-oxadiazole]
< 0.5 | Fc1cccc(F)c1-c1nnc(N2CCc3[nH]cnc3[C@H]2c2cc3c(C(F)F)cccn3n2)o1 [Example 1863, (S)-2-(4-(4-(difluoromethyl)pyrazolo[1,5-a]pyridin-2-yl)-1,4,6,7-tetrahydro-5H-imidazo[4,5-c]pyridin-5-yl)-5-(2,6-difluorophenyl)-1,3,4-oxadiazole]
< 0.5 | FC(F)(F)c1ccc(N2CCc3[nH]cnc3[C@H]2c2cc3ccccn3n2)nc1 [Example 1914, (S)-4-(pyrazolo[1,5-a]pyridin-2-yl)-5-(5-(trifluoromethyl)pyridin-2-yl)-4,5,6,7-tetrahydro-1H-imidazo[4,5-c]pyridine]

same assay, conditions: A375 cells expressing human R408W PAH; 24 hrs compound incubation; 13C-Tyrosine by LC-MS; average where tested multiple times; read-out: AC50

AC50 [µM] | Structure (SMILES)
< 0.5 | Cn1ccc(-c2nnc(C(=O)N3CCc4[nH]cnc4[C@H]3c3cc4c(Cl)cccn4n3)o2)n1 [Example 718, (S)-(4-(4-chloropyrazolo[1,5-a]pyridin-2-yl)-6,7-dihydro-1H-imidazo[4,5-c]pyridin-5(4H)-yl)(5-(1-methyl-1H-pyrazol-3-yl)-1,3,4-oxadiazol-2-yl)methanone]
< 0.5 | CC(C)(C#N)c1nc(C(F)F)c(C(=O)N2CCc3[nH]cnc3[C@H]2c2cc3ccccn3n2)o1 [Example 699, (S)-2-(4-(difluoromethyl)-5-(4-(pyrazolo[1,5-a]pyridin-2-yl)-4,5,6,7-tetrahydro-1H-imidazo[4,5-c]pyridine-5-carbonyl)oxazol-2-yl)-2-methylpropanenitrile]
0.5 to 1 | O=C(c1nnc(-c2ncccc2F)o1)N1CCc2[nH]cnc2[C@H]1c1cc2ccccn2n1 [Example 616, (S)-(5-(3-fluoropyridin-2-yl)-1,3,4-oxadiazol-2-yl)(4-(pyrazolo[1,5-a]pyridin-2-yl)-6,7-dihydro-1H-imidazo[4,5-c)pyridin-5(4H)-yl)methanone]
0.5 to 1 | CN(C)Cc1ccc2c(C(=O)N3CCc4[nH]cnc4[C@H]3c3cc4c(C(F)(F)F)cccn4n3)cnn2c1 [Example 1546, (S)-(6-((dimethylamino)methyl)pyrazolo[1,5-a]pyridin-3-yl)(4-(4-(trifluoromethyl)pyrazolo[1,5-a]pyridin-2-yl)-6,7-dihydro-1H-imidazo[4,5-c]pyridin-5(4H)-yl)methanone]
< 0.5 | CC1(c2nnc(C(=O)N3CCc4[nH]cnc4[C@H]3c3cc4c(C(F)(F)F)cccn4n3)o2)CC1 [Example 1325, (S)-(5-(1-methylcyclopropyl)-1,3,4-oxadiazol-2-yl)(4-(4-(trifluoromethyl)pyrazolo[1,5-a]pyridin-2-yl)-6,7-dihydro-1H-imidazo[4,5-c]pyridin-5(4H)-yl)methanone]
1 to 5 | COCc1ccc2c(C(=O)N3CCc4[nH]cnc4[C@@H]3c3cc4c(C(F)(F)F)cccn4n3)cnn2c1 [Example 1549, (R)-(6-(methoxymethyl)pyrazolo[1,5-a]pyridin-3-yl)(4-(4-(trifluoromethyl)pyrazolo[1,5-a]pyridin-2-yl)-6,7-dihydro-1H-imidazo[4,5-c]pyridin-5(4H)-yl)methanone]
< 0.5 | Cc1cc(-c2nnc(C(=O)N3CCc4[nH]cnc4[C@H]3c3cc4c(C(F)F)cccn4n3)o2)nn1C [Example 1531, (S)-(4-(4-(difluoromethyl)pyrazolo[1,5-a]pyridin-2-yl)-6,7-dihydro-1H-imidazo[4,5-c]pyridin-5(4H)-yl)(5-(1,5-dimethyl-1H-pyrazol-3-yl)-1,3,4-oxadiazol-2-yl)methanone]
< 0.5 | O=C(c1ccnn1C(F)F)N1CCc2[nH]cnc2[C@H]1c1cc2ccc(C(F)(F)F)cn2n1 [Example 1138, (S)-(1-(difluoromethyl)-1H-pyrazol-5-yl)(4-(6-(trifluoromethyl)pyrazolo[1,5-a]pyridin-2-yl)-6,7-dihydro-1H-imidazo[4,5-c]pyridin-5(4H)-yl)methanone]
1 to 5 | COc1ccc(-c2nnc(C(=O)N3CCc4[nH]cnc4[C@@H]3c3cc4c(C(F)F)cccn4n3)o2)nc1 [Example 1425, (R)-(4-(4-(difluoromethyl)pyrazolo[1,5-a]pyridin-2-yl)-6,7-dihydro-1H-imidazo[4,5-c]pyridin-5(4H)-yl)(5-(5-methoxypyridin-2-yl)-1,3,4-oxadiazol-2-yl)methanone]
< 0.5 | Cc1cc(F)ccc1-c1nnc(C(=O)N2CCc3[nH]cnc3[C@H]2c2cc3ccccn3n2)o1 [Example 654, (S)-(5-(4-fluoro-2-methylphenyl)-1,3,4-oxadiazol-2-yl)(4-(pyrazolo[1,5-a]pyridin-2-yl)-6,7-dihydro-1H-imidazo[4,5-c]pyridin-5(4H)-yl)methanone]
> 5 | COc1cccn2nc([C@H]3c4nc[nH]c4CCN3C(=O)c3cnn4cc(C5CC5)ccc34)cc12 [Example 1789, (R)-(6-cyclopropylpyrazolo[1,5-a]pyridin-3-yl)(4-(4-methoxypyrazolo[1,5-a]pyridin-2-yl)-6,7-dihydro-1H-imidazo[4,5-c]pyridin-5(4H)-yl)methanone]
< 0.5 | Cn1nc(Cl)nc1C(=O)N1CCc2[nH]cnc2[C@H]1c1cc2cccc(C(F)(F)F)n2n1 [Example 1162, (S)-(3-chloro-1-methyl-1H-1,2,4-triazol-5-yl)(4-(7-(trifluoromethyl)pyrazolo[1,5-a]pyridin-2-yl)-6,7-dihydro-1H-imidazo[4,5-c]pyridin-5(4H)-yl)methanone]

Structure (SMILES) | AC50 [µM]
FC(F)c1cccn2nc([C@@H]3c4nc[nH]c4CCN3c3ncccn3)cc12 [Example 1762, (S)-4-(4-(difluoromethyl)pyrazolo[1,5-a]pyridin-2-yl)-5-(pyrimidin-2-yl)-4,5,6,7-tetrahydro-1H-imidazo[4,5-c]pyridine] | < 0.5
